One series concerns MPC cells. Briefly: Cell binding and uptake (internalization) in MPC cells. Type of series: cell-based, mouse. As to the method: Furthermore, the receptor-mediated endocytosis (referred to as internalization) of the novel compounds was assessed. The values for the internalized fraction (or “acid wash” resistant fraction) were >50% (Figure S5), which might indicate a similar pharmacological behavior of these ligands upon binding to SST2 as the parent ligand TATE.
Cell binding and uptake were measured as previously described. , MPC cells were seeded into collagen-coated 24-well microplates and cultivated for 4 days. All washing steps were performed using PBS containing 0.9 mM CaCl2 and 0.5 mM MgCl2. Total radioligand uptake was measured after incubation with the radioligand (A m = 30 GBq/μmol) at a final concentration of 20 nM in RPMI 1640 medium with GlutaMAX supplement (Thermo Fisher Scientific) for 1 h at 37 and 4 °C. Nonspecific binding was determined in the presence of 20 μM Acetyl-TATE. The uptake fraction was measured after acid wash of cell surface-bound radioligand with wash buffer containing 0.05 M glycine, pH 2.8, for 5 min. The activity of cell homogenates was measured using the γ counter Wizard (PerkinElmer). The protein content of cell homogenates was measured as described above.
Figure S5: Cell binding data
Data shown in A and B are mean values (±SD) of one experiment (NODAGA-cLAB(5/6)- TATE and NODAGA-cLAB4-scrTATE) or 3 experiments (±SEM, DOTA-EB-TATE), which were performed in sextuplicate. In C, the amount of specific “internalized” (acid resistant) radioligand (red bars in A, mean values) is expressed as percentage of specific total -bound radioligand (blue bars in A, mean values). The difference to 100% was assigned to “surface - bound” radioligand. For a better overview, the compound names were abbreviated. […]
specific binding of radioligand
Incubation at 37°C for 1 h
(% dose/mg of protein) Washing with
Incubation at 4°C for 1 h […]
(1 picture or pasted object on this page, not shown here)

A short description of series [1]: n-Octanol/PBS distribution coefficient (log D7.4).
Protocol: The log D7.4 values of the ^64Cu-labeled peptides were determined with the octanol partitioning method.
The determination of the log D7.4 value was done in triplicate as previously described. , Briefly, a sample of the radioligand was added to the 1:1 mixture of PBS/n-octanol. The radioactivity in a defined volume of each layer was measured (ISOMED 2100). The distribution coefficient was expressed as the logarithm of the ratio of counts per minute (cpm) measured in the n-octanol phase to the cpm measured in the PBS phase.
A further series concerns the target HSA (Homo sapiens, UniProt P02768). Briefly: Estimation of Kd[HSA] from structure-activity relationships of the isolated cLABs. An excerpt: Table S1: Comparison of estimated and determined Kd[HSA] values for the 64Cu-labeled TATE derivatives bearing an albumin […]
predicted determinedi predict./determ. cLAB1 R1-pentanoyl-D-Lys(IPB)-OH 8.0a 3.1j 2.6 cLAB2 R1-benzoyl-L-Lys(IPB)-OH 0.36b 1.8j 0.2 cLAB3 R1-benzoyl-L-Lys(IPB)-NH2 7.9c 9.2j 0.9 […]
cLAB4-scrTATE R1-benzoyl-L-Lys(MPB)-NH2 66d 42 1.6 a Represents the Kd value of the albumin binder (R)-1e (5-N3-pentanoyl-D-Lys(IPB)-OH).1 b Represents the Kd value of the albumin binder (S)-1f (4-N3-benzoyl-L-Lys(IPB)-OH).1 c Calculated using the Kd value of the respective carboxylic acid ((S)-1f) and a factor of 22, which is the factor between Acetyl-L-Lys(IPB)-OH ((S)-1c) an Acetyl-L-Lys(IPB)-NH2 ((S)-2a).1 […]
f Calculated using the Kd value of the respective carboxylic acid ((S)-1f) and the factors of 22 (carboxylic acid → carboxamide) and 2.2 (L → D configuration, factor between (S)-1c and (R)-1c).1 g Represents the Kd value determined for the non-radioactive compound using the fluorescence-based competition […]
h Compound names were abbreviated. i Determined using the radiometric ultrafiltration assay described in the main article. j Previously determined by us.1

For another series, the target named is T1, SST2 (Mus musculus, UniProt P30875).
T1 construct: a mouse pheochromocytoma cell line (MPC) with a high endogenous abundance of SST2 was used; endogenous in cells; host or cells: MPC (mouse pheochromocytoma) cells, intact
T1 sequence (P30875 whole entry): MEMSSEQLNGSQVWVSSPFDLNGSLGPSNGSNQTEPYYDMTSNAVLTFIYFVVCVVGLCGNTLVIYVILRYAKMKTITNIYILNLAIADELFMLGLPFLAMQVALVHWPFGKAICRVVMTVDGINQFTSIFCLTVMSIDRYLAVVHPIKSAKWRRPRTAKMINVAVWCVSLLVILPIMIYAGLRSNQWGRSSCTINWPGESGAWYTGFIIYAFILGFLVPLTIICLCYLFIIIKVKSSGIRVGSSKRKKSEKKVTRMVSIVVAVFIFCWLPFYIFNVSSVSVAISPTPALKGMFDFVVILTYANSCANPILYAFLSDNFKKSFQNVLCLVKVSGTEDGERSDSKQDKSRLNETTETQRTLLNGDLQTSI
Briefly: Saturation binding analysis to SST2 using intact MPC cells.

*1 amine or outer side, *2 acyl side, *3 side chain or, on linkers, in order; H or OH if unused. Where a SMILES comes first, the peptide text is derived from it. Bridges are numbered along the chain shown (N, C = ends). [ ]: non-standard residue; d: D form. The star is where a group is joined. Ala(1-(4-CO-Ph)triazol-4-yl) = O=C([C@H](Cc1cn(-c2ccc(C(=O)[*:3])cc2)nn1)N[*:1])[*:2]; X1 = O=C(O)CN1CCN(CC(=O)O)CCN([C@H](CCC(=O)*)C(=O)O)CC1; X2 = Cc1ccc(CCCC(=O)NCCCC[C@H](N*)C(N)=O)cc1; AEEA = NCCOCCOCC(=O)O

Sequence of HSA (P02768 25-609): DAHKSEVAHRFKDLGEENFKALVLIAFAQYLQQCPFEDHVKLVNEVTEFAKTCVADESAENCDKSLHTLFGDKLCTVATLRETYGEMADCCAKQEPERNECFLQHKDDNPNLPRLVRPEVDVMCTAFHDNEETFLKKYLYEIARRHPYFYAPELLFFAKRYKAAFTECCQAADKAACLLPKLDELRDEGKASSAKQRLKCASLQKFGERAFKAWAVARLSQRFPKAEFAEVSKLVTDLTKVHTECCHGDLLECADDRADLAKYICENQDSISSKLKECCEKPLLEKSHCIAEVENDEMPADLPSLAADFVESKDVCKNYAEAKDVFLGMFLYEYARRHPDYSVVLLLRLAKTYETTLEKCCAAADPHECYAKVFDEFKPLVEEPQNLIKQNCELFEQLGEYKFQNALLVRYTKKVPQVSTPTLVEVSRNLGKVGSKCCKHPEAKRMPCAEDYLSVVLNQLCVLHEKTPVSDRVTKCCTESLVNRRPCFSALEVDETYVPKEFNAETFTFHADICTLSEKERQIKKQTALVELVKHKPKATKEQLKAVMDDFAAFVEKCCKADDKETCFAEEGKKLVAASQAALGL
Protocol for SST2: Binding assay was performed as previously described. , A number of 3 × 10^5 cells/cm^2 were seeded in collagen-coated 48-well microplates (CELLSTAR 48 Well Cell Culture Multiwell Plates, Polystyrene, Greiner Bio-One, item no. 677180) and grown for 3 days. For binding assays, the cell culture medium was removed and replaced by fresh medium supplemented with the radioligand (Am = 25 MBq/nmol) at increasing final concentrations between 0.321 and 40 nM (final sample volume: 0.2 mL). Nonspecific cell binding was measured in the presence of nonlabeled DOTA-TATE or Acetyl-TATE at a final concentration of 1 μM. Nonspecific binding to plastic surfaces was determined in cell-free wells at radioligand concentrations of 0.312, 1.25, 5, and 20 nM (with and without 1 μM nonlabeled DOTA-TATE or Acetyl-TATE; the values at the other radioligand concentrations were derived by linear regression). Samples were incubated for 60 min at 37 °C. Incubation was stopped by washing with ice-cold Dulbecco’s PBS. Cells were lysed with 0.1 M NaOH containing 1% (w/v) SDS. Activity was measured in cell homogenates and in a series of radioligand standards containing increasing molar amounts between 0.06 and 8 pmol using the gamma counter Wizard (PerkinElmer). The protein content of cell homogenates was measured as described above. Measurements for total binding were performed in triplicate, while measurements for nonspecific binding were performed in duplicates.
Calculations were performed as previously described. , Plots of “total binding” = f(radioligand) were analyzed by nonlinear regressions using the model of “one site-total, accounting for ligand depletion” as implemented in GraphPad Prism and plots of “nonspecific binding” = f(radioligand) were analyzed by linear regressions (Figure S3). For the ligand depletion model, the term “NS” was constrained to the respective slopes obtained by the linear regressions. The terms “SpecAct” (obtained with standard curves, Figure S4) and “Vol” (0.2 mL, assay volume) were also constrained. […]

For `Cc1ccc(CCCC(=O)NCCCC[C@H](NC(=O)c2ccc(-n3cc(C[C@H](NC(=O)CC[C@H](C(=O)O)N4CCN(CC(=O)O)CCN(CC(=O)O)CC4)C(=O)NCCOCCOCC(=O)N[C@@H](CCCCN)C(=O)N[C@H]4CSSC[C@@H](C(=O)N[C@H](C(=O)O)[C@@H](C)O)NC(=O)[C@@H](Cc5c[nH]c6ccccc56)NC(=O)[C@@H](Cc5ccccc5)NC(=O)[C@H]([C@@H](C)O)NC(=O)[C@H](Cc5ccc(O)cc5)NC4=O)nn3)cc2)C(N)=O)cc1` [[64Cu]Cu-NODAGA-cLAB4-scrTATE, metal not drawn] (X1-[Ala(1-(4-CO-Ph)triazol-4-yl)](X2)[AEEA]KCYT[dF][dW]CT-OH; disulfide 4-9), the “binding in the cell binding and uptake assay” value in the series on MPC cells (MPC cells, 20 nM, 1 h) is given as “no binding at all”. Also, the “specific binding of radioligand” value in the series on MPC cells (incubation at 4 °C for 1 h, washing with PBS pH 7.4, 20 nM) was 0.01 % dose/mg of protein; in the series on MPC cells (incubation at 4 °C for 1 h, washing with glycine buffer pH 2.8, 20 nM), 0.03 % dose/mg of protein; in the series on MPC cells (incubation at 37 °C for 1 h, washing with PBS pH 7.4 (total bound), 20 nM), 0.02 %dose/mg of protein; with MPC cells (incubation at 37 °C for 1 h, washing with glycine buffer pH 2.8 (acid resistant), 20 nM), 0.04 %dose/mg of protein. The logD in series [1] was -2.17. The “Ratio Kd predict./determ.” value on HSA is 1.6. For the same compound, the “Kd [SST2]” value on SST2 (60 min 37 °C, mean (±SEM) of 2–4 experiments) was “no binding was detected and n.b”. Moreover, the Bmax entry on SST2 (mean (±SEM)) is reported as “n.b”.

The values above are taken from article PMC12169663, “Deciphering the Tumor Uptake of Heterobivalent (SST2/Albumin) [^64Cu]Cu-NODAGA-cLAB-TATEs” (Journal of Medicinal Chemistry, 2025).
